Source: patent publication US11976062B2, “Benzisoxazole compound” (OSAKA UNIVERSITY, priority 2018, dated 2024)

What was measured:
[1] = target: T1, TRPC3 channel (Homo sapiens, UniProt Q13507); experiment: Calcium assay using HEK293 cells transiently expressing TRPC3 channel, carbachol activation (Fura-2); format: cell-based
T1 construct: expressed in transfected cells; host or cells: HEK293
T1 sequence (Q13507 1-921): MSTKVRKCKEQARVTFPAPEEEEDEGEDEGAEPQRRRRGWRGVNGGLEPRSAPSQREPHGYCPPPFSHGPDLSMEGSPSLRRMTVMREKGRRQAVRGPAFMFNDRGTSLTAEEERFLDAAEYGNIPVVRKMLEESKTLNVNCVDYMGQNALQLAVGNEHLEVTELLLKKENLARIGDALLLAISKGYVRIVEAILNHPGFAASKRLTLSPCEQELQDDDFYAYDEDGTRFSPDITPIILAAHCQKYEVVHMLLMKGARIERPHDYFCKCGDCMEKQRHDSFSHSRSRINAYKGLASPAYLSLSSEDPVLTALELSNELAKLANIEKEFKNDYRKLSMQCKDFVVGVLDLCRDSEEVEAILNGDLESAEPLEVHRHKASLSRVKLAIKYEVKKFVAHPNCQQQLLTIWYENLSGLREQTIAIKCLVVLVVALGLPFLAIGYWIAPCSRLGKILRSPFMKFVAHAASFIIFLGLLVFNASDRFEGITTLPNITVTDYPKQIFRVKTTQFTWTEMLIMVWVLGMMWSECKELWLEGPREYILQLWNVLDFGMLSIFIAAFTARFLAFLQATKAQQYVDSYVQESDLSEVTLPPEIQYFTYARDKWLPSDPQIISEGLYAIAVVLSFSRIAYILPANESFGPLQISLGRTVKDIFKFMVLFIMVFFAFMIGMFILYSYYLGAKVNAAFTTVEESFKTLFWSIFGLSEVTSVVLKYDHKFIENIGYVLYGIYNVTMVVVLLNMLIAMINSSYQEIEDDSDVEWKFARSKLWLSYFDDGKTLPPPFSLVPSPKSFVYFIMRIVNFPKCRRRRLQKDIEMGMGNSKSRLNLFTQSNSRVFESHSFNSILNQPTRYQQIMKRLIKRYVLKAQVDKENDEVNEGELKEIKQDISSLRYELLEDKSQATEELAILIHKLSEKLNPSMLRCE
Method: A TRPC6 gene was introduced into HEK293 cells (cells derived from human fetal kidney) by lipofection, and the TRPC6 channel was expressed on the cell membrane. Specifically, the plasmid DNA of TRPC6 (pCI-neo; Promega Corporation) was introduced into HEK293 cells using a lipofection reagent, and then cultured at 37° C. for 24 to 48 hours to express the TRPC6 channel on the cell membrane. In the same manner, HEK293 cells into which the TRPC3 gene was introduced were cultured, and the TRPC3 channel was expressed on the cell membrane.
The cultured cells were peeled off with trypsin and seeded on a cover glass again, followed by culturing the cells at 37° C. for 3 hours again. A Fura-2 AM calcium indicator was added to the medium, and the cells were cultured at 37° C. for 30 minutes to allow the cells to incorporate the indicator. For the extracellular solution, a Ca^2+-containing solution and a Ca^2+-free solution were prepared. • Ca^2+-containing solution: 2 mM CaCl2, 132 mM NaCl, 4 mM KCl, 1 mM MgCl2, 5 mM glucose, 5 mM HEPES (pH 7.4) • Ca^2+-free solution: 132 mM NaCl, 4 mM KCl, 1 mM MgCl2, 5 mM glucose, 5 mM HEPES (pH 7.4) […]

[2] = system: α-SMA expression induced by TGFβ1 in dermal fibroblasts; experiment: Fibrosis inhibition evaluation 1: western blotting of α-SMA in dermal fibroblasts; format: cell-based, mice; conditions: compound 011 0.1, 1, 10 μM (especially 10 μM); Pyr 2 10 μM; TGFβ1 10 ng/ml, 48 hours
Method: The expression of α-smooth muscle actin (α-SMA) in fibroblasts was evaluated by western blotting. Dermal fibroblasts were isolated from 1 to 3-day-old mice, and 2.5×10^5 cells were seeded in a 12-well plate. After 24 hours, the medium was replaced with a medium free of fetal bovine serum, and the cells were cultured for another 24 hours. Thereafter, 10 ng/ml of transforming growth factor β1 (TGFβ1) was added, and the cells were cultured for 48 hours. At the same time as TGFβ1 was added, a test compound (compound 011) of a predetermined concentration (0.1 μM, 1 μM, 10 μM) and 10 μM of Pyr 2 or DMSO (solvent control) were also added. […] The cultured cells were dissolved in a lysis buffer (140 mM NaCl, 20 mM Tris-HCl pH 7.8, 1% Triton-X100, 0.05% sodium deoxycholate, 0.1% SDS, 2 mM EDTA, proteinase inhibitor cocktail), and separated by SDS-PAGE, followed by detecting α-SMA using anti-α-SMA antibody (Sigma) as the primary antibody and anti-mouse IgG antibody (cell signaling) fused with horse radish peroxidase as the secondary antibody.

O=C(O)c1cnc(N2CCN(c3noc4cccc(C(F)(F)F)c34)CC2)c(Cl)c1 [Compound 011, 5-chloro-6-(4-(4-(trifluoromethyl)benzo[d]isoxazol-3-yl)piperazin-1-yl) nicotinic acid]
Ca2+ concentration in the cells reached after addition of carbachol ([1]; TRPC3, FIG. 2, from about 100 nM, control (DMSO) about 350 nM): about 180 nM | IC50 ([1]; TRPC3-expressing HEK293 cells, carbachol 100 μM, from concentration-response curves, read-out: IC50 for inhibition of the TRPC3 channel): 700 nM | expression of α-SMA induced by TGFβ1 (western blotting) [2]: potently inhibited the expression of α-SMA induced by TGFβ1
